Experimental data reported in PubChem BioAssay (NCI).
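Each compound was tested at five concentrations against cells in 96-well plates for 48 hours. Definition used: TGI = concentration required for complete inhibition of growth.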

Columns and labels:
Assay in all cases: NCI anticancer screen, dose series, 48 h
[1] = system: 786-0 renal
[2] = system: A498 renal
[3] = system: A549 NSCLC
[4] = system: ACHN renal
[5] = system: CAKI-1 renal
[6] = system: CCRF-CEM leukemia
[7] = system: COLO 205 colon
[8] = system: DMS 114 small cell lung
[9] = system: DMS 273 small cell lung
[10] = system: EKVX NSCLC
[11] = system: HCC-2998 colon
[12] = system: HCT-116 colon
[13] = system: HCT-15 colon
[14] = system: HOP-18 NSCLC
[15] = system: HOP-62 NSCLC
[16] = system: HT29 colon
[17] = system: IGROV1 ovarian
[18] = system: K-562 leukemia
[19] = system: KM12 colon
[20] = system: KM20L2 colon
[21] = system: LOX IMVI melanoma
[22] = system: LXFL 529 NSCLC
[23] = system: M14 melanoma
[24] = system: MALME-3M melanoma
[25] = system: MOLT-4 leukemia
[26] = system: NCI-H226 lung
[27] = system: NCI-H23 lung
[28] = system: NCI-H460 lung
[29] = system: NCI-H522 lung
[30] = system: OVCAR-3 ovarian
[31] = system: OVCAR-4 ovarian
[32] = system: OVCAR-5 ovarian
[33] = system: OVCAR-8 ovarian
[34] = system: RPMI-8226 leukemia
[35] = system: RXF 393 renal
[36] = system: RXF-631 renal
[37] = system: SF-268 CNS
[38] = system: SF-295 CNS
[39] = system: SF-539 CNS
[40] = system: SK-MEL-2 melanoma
[41] = system: SK-MEL-5 melanoma
[42] = system: SK-OV-3 ovarian
[43] = system: SN12C renal
[44] = system: SNB-75 CNS
[45] = system: SNB-78 CNS
[46] = system: SW-620 colon
[47] = system: TK-10 renal
[48] = system: U251 CNS
[49] = system: UACC-257 melanoma
[50] = system: UACC-62 melanoma
[51] = system: UO-31 renal
[52] = system: XF 498 CNS
[53] = system: HOP-92 NSCLC
[54] = system: M19-MEL melanoma
[55] = system: SK-MEL-28 melanoma
[56] = system: SNB-19 CNS
[57] = system: HL-60(TB) leukemia

SMILES: Cn1c(=O)nc2n(-c3cccc(Cl)c3)c3ccccc3nc-2c1=O
- TGI [1]: > 100 µM
- TGI [2]: 79.3 µM
- TGI [3]: 33 µM
- TGI [4]: 29.8 µM
- TGI [5]: 70 µM
- TGI [6]: 50.5 µM
- TGI [7]: 16 µM
- TGI [8]: 20 µM
- TGI [9]: 25.1 µM
- TGI [10]: 26.9 µM
- TGI [11]: 25.6 µM
- TGI [12]: 30.8 µM
- TGI [13]: 30.2 µM
- TGI [14]: 85.5 µM
- TGI [15]: 90.9 µM
- TGI [16]: 21.4 µM
- TGI [17]: 54 µM
- TGI [18]: 38.2 µM
- TGI [19]: 44.9 µM
- TGI [20]: 23.8 µM
- TGI [21]: 59.8 µM
- TGI [22]: 72.8 µM
- TGI [23]: 24 µM
- TGI [24]: 12.3 µM
- TGI [25]: 42 µM
- TGI [26]: 74.9 µM
- TGI [27]: 21.9 µM
- TGI [28]: 26.2 µM
- TGI [29]: 30.7 µM
- TGI [30]: 6.61 µM
- TGI [31]: 24.6 µM
- TGI [32]: 40.8 µM
- TGI [33]: 78.1 µM
- TGI [34]: 51 µM
- TGI [35]: 83.3 µM
- TGI [36]: 40.8 µM
- TGI [37]: > 100 µM
- TGI [38]: 62.1 µM
- TGI [39]: 33 µM
- TGI [40]: 40.7 µM
- TGI [41]: 25.2 µM
- TGI [42]: > 100 µM
- TGI [43]: 28.5 µM
- TGI [44]: 51.8 µM
- TGI [45]: 57.7 µM
- TGI [46]: 25 µM
- TGI [47]: 73.6 µM
- TGI [48]: 37.7 µM
- TGI [49]: 23.8 µM
- TGI [50]: 6.36 µM
- TGI [51]: > 100 µM
- TGI [52]: 35.3 µM

SMILES: N#CC1C(=O)C(=O)N(c2ccccc2)C1=O (centres undefined)
- TGI [1]: > 100 µM
- TGI [2]: > 100 µM
- TGI [4]: > 100 µM
- TGI [5]: > 100 µM
- TGI [7]: > 100 µM
- TGI [8]: > 100 µM
- TGI [9]: > 100 µM
- TGI [10]: > 100 µM
- TGI [11]: > 100 µM
- TGI [12]: > 100 µM
- TGI [13]: > 100 µM
- TGI [14]: > 100 µM
- TGI [15]: > 100 µM
- TGI [53]: > 100 µM
- TGI [16]: > 100 µM
- TGI [17]: > 100 µM
- TGI [18]: > 100 µM
- TGI [19]: > 100 µM
- TGI [20]: > 100 µM
- TGI [21]: > 100 µM
- TGI [22]: > 100 µM
- TGI [23]: > 100 µM
- TGI [54]: > 100 µM
- TGI [24]: > 100 µM
- TGI [26]: > 100 µM
- TGI [27]: > 100 µM
- TGI [28]: > 100 µM
- TGI [29]: > 100 µM
- TGI [30]: > 100 µM
- TGI [31]: > 100 µM
- TGI [32]: > 100 µM
- TGI [33]: > 100 µM
- TGI [34]: > 100 µM
- TGI [35]: > 100 µM
- TGI [36]: > 100 µM
- TGI [37]: > 100 µM
- TGI [38]: > 100 µM
- TGI [39]: > 100 µM
- TGI [40]: > 100 µM
- TGI [55]: > 100 µM
- TGI [41]: > 100 µM
- TGI [42]: > 100 µM
- TGI [43]: > 100 µM
- TGI [56]: > 100 µM
- TGI [44]: > 100 µM
- TGI [45]: > 100 µM
- TGI [46]: > 100 µM
- TGI [47]: > 100 µM
- TGI [48]: > 100 µM
- TGI [49]: > 100 µM
- TGI [50]: > 100 µM
- TGI [51]: > 100 µM
- TGI [52]: > 100 µM

SMILES: C=CCN(N=O)C(=O)NCCCC(NC(C)=O)C(=O)NCc1ccccc1 (centres undefined)
- TGI [1]: > 100 µM
- TGI [2]: > 100 µM
- TGI [3]: > 100 µM
- TGI [4]: > 100 µM
- TGI [5]: > 100 µM
- TGI [6]: > 100 µM
- TGI [7]: > 100 µM
- TGI [8]: > 100 µM
- TGI [9]: > 100 µM
- TGI [10]: > 100 µM
- TGI [13]: > 100 µM
- TGI [57]: > 100 µM
- TGI [14]: > 100 µM
- TGI [15]: > 100 µM
- TGI [53]: > 100 µM
- TGI [16]: > 100 µM
- TGI [17]: > 100 µM
- TGI [18]: > 100 µM
- TGI [19]: > 100 µM
- TGI [20]: > 100 µM
- TGI [21]: > 100 µM
- TGI [22]: > 100 µM
- TGI [23]: > 100 µM
- TGI [54]: > 100 µM
- TGI [24]: > 100 µM
- TGI [25]: > 100 µM
- TGI [26]: > 100 µM
- TGI [27]: > 100 µM
- TGI [28]: > 100 µM
- TGI [29]: > 100 µM
- TGI [30]: > 100 µM
- TGI [31]: > 100 µM
- TGI [32]: > 100 µM
- TGI [33]: > 100 µM
- TGI [34]: > 100 µM
- TGI [35]: > 100 µM
- TGI [36]: > 100 µM
- TGI [37]: > 100 µM
- TGI [38]: > 100 µM
- TGI [39]: > 100 µM
- TGI [40]: > 100 µM
- TGI [55]: > 100 µM
- TGI [41]: > 100 µM
- TGI [42]: > 100 µM
- TGI [43]: > 100 µM
- TGI [56]: > 100 µM
- TGI [44]: > 100 µM
- TGI [46]: > 100 µM
- TGI [47]: > 100 µM
- TGI [48]: > 100 µM
- TGI [49]: > 100 µM
- TGI [50]: > 100 µM
- TGI [51]: > 100 µM
- TGI [52]: > 100 µM
